Source: BindingDB's records for doi:10.1124/jpet.102.039867 (Institut De Recherches Servier, 2002)

target: T1, Alpha-2C adrenergic receptor (Homo sapiens, UniProt P18825)
T1 sequence (P18825 whole entry): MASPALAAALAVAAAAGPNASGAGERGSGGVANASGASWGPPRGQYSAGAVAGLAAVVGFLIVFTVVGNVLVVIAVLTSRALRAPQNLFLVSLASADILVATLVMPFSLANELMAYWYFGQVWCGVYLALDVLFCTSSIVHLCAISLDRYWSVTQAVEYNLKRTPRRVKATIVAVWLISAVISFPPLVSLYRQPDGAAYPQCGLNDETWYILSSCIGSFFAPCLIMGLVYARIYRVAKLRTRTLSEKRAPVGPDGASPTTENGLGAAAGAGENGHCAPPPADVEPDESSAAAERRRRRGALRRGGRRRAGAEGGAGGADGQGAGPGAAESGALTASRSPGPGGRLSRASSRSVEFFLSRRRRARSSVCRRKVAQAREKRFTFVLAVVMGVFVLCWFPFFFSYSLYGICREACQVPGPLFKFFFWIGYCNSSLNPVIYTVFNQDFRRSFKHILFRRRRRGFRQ

Point of comparison: CCN(CC)C(=O)N[C@H]1C[C@@H]2c3cccc4[nH]cc(c34)C[C@H]2N(C)C1, Ki 0.76 nM. Against it:
- Oc1ccc2[nH]cc(CCCCN3CC=C(c4ccccc4)CC3)c2c1 — 2.3-fold higher, 1.78 nM
- CCCN(CCC)CCc1cccc2c1CC(=O)N2 — 1600-fold higher, 1200 nM
- CN(C)C1CCc2cc(O)c(O)cc2C1 (stereo not given) [(6,7-Dihydroxy-1,2,3,4-tetrahydro-naphthalen-2-yl)-dimethyl-ammonium] — 7.9-fold higher, 6.03 nM
- CN1CCc2cccc3c2[C@H]1Cc1ccc(O)c(O)c1-3 [APOKYN] — 48-fold higher, 36.3 nM
- C=CCN1CCc2nc(N)sc2CC1 [B-HT 920] — 56-fold higher, 42.7 nM
- C=CCN1CC(C(=O)N(CCCN(C)C)C(=O)NCC)CC2c3cccc4[nH]cc(c34)CC21 (stereo not given) [NSC_54746] — 29-fold higher, 22.4 nM
- CCCN1C[C@H](CSC)C[C@@H]2c3cccc4[nH]cc(c34)C[C@H]21 [Permax] — 89-fold higher, 67.6 nM
- CCCNC1CCc2nc(N)sc2C1 (stereo not given) [Pramipexole] — higher, > 10000 nM
- CCCN1CCC[C@@H]2Cc3nc(N)ncc3C[C@H]21 [Quinerolane] — higher, > 10000 nM
